This passage reports IC50 results from patent US20250136586A1, “Substituted 7-(Pyrimidin-4-yl)Quinolin-4(1H)-One Compounds as Cyclin Dependent Kinase Inhibitors” (BeiGene, Ltd., priority 2022, published 2025).

For experiment [1], the target named is CDK4/Cyclin D1 (Homo sapiens (Human), UniProt P11802). Kind of experiment: TR-FRET kinase inhibition assay, CDK4/Cyclin D1. The format is biochemical. Particulars: 1 mM ATP, 0.15 μM Rb (Ser780)-biotin substrate, read-out: CDK4D1 IC50. The method, then: Compounds disclosed herein were tested for inhibition of CDK4/Cyclin D1 or CDK6/Cyclin D3 kinase in an assay based on the time-resolved fluorescence-resonance energy transfer (TR-FRET) methodology. […] The kinase was incubated with compound for 60 minutes at room temperature and the reaction was initiated by the addition of ATP and Rb (Ser780)-biotin substrate. After reaction at room temperature for 120 minutes, an equal volume of stop/detection solution was added according to the manufacture's instruction (Cisbio Bioassays). The stop/detection solution contained Streptavidin-XL665 and Anti-pRb (Ser780) mAb-Eu Cryptate in Detection buffer (Cisbio Bioassays). […] The inhibition percentage of CDK4/Cyclin D1 or CDK6/Cyclin D3 kinase activity in presence of increasing concentrations of compounds was calculated based on the ratio of fluorescence at 665 nm to that at 620 nm. The IC50 for each compound was derived from fitting the data to the four-parameter logistic equation by Dotmatics.
On the technique in general: In TR-FRET formats the signal depends on donor and acceptor labels being close together.

The target of experiment [2] is CDK6/Cyclin D3 (Homo sapiens (Human), UniProt Q00534). In words: TR-FRET kinase inhibition assay, CDK6/Cyclin D3. The format is biochemical. Conditions: 1 mM ATP, 0.15 μM Rb (Ser780)-biotin substrate, read-out: CDK6D3 IC50. The method, then:
Compounds disclosed herein were tested for inhibition of CDK4/Cyclin D1 or CDK6/Cyclin D3 kinase in an assay based on the time-resolved fluorescence-resonance energy transfer (TR-FRET) methodology. The assay was carried out in 384-well low volume black plates in a reaction mixture containing CDK4/Cyclin D1 or CDK6/Cyclin D3, 1 mM ATP, 0.15 μM Rb (Ser780)-biotin substrate and 0-10 μM compound in buffer containing 50 mM HEPES pH7.0, 0.02% NaN3, 0.01% BSA, 0.1 mM Orthovanadate, 50 mM MgCl2, 1 mM DTT and 0.005% Tween-20. The kinase was incubated with compound for 60 minutes at room temperature and the reaction was initiated by the addition of ATP and Rb (Ser780)-biotin substrate. After reaction at room temperature for 120 minutes, an equal volume of stop/detection solution was added according to the manufacture's instruction (Cisbio Bioassays). The stop/detection solution contained Streptavidin-XL665 and Anti-pRb (Ser780) mAb-Eu Cryptate in Detection buffer (Cisbio Bioassays). Plates were incubated at room temperature for 60 minutes, and the TR-FRET signals (ex337 nm, em665 nm/620 nm) were recorded on a PHERAstar FSX plate reader (BMG Labtech). The inhibition percentage of CDK4/Cyclin D1 or CDK6/Cyclin D3 kinase activity in presence of increasing concentrations of compounds was calculated based on the ratio of fluorescence at 665 nm to that at 620 nm. The IC50 for each compound was derived from fitting the data to the four-parameter logistic equation by Dotmatics.

Sequence of CDK6/Cyclin D3 (Q00534 whole entry): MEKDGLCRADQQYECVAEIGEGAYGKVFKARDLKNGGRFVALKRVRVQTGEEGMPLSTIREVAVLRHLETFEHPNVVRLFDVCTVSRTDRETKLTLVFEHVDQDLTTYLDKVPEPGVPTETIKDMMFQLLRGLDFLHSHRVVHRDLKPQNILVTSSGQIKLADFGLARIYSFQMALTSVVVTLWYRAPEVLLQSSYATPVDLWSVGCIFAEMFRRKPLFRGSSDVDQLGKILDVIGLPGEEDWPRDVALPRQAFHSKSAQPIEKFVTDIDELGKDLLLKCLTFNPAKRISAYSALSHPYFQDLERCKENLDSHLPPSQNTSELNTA
Sequence of CDK6/Cyclin D3 (P30281 whole entry partner): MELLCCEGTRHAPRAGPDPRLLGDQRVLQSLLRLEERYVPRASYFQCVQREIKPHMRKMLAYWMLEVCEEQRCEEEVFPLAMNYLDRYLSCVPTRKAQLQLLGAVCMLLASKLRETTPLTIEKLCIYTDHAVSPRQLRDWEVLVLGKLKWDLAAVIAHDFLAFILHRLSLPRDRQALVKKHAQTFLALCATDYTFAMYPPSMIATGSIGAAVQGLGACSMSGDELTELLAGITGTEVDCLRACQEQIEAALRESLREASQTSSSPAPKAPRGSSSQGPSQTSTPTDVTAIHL
Sequence of CDK4/Cyclin D1 (P11802 whole entry): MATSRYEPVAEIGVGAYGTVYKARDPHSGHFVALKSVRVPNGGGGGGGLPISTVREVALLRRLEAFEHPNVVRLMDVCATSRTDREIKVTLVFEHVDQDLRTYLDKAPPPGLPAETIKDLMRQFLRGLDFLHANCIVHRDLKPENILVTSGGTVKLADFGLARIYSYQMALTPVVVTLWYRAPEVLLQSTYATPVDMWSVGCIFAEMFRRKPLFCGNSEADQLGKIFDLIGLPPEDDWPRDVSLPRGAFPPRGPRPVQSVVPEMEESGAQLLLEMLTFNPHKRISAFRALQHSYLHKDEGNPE
Sequence of CDK4/Cyclin D1 (P24385 whole entry partner): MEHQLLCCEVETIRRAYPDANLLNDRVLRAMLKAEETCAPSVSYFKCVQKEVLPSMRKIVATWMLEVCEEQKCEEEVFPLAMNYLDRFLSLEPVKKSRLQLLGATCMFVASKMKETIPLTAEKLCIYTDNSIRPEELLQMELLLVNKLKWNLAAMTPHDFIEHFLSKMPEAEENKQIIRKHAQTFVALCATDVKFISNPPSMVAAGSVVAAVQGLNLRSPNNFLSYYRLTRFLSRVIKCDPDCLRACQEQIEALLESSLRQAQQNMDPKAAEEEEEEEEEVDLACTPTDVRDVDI

Consider `CC(C)n1c(CN2C[C@H]3COC[C@H]3C2)cc(=O)c2ccc(-c3nc(N[C@@H]4CCOC[C@H]4O)ncc3F)cc21` [Example 41, 7-(5-fluoro-2-(((3S,4R)-3-hydroxytetrahydro-2H-pyran-4-yl)amino)pyrimidin-4-yl)-1-isopropyl-2-(((3aR,6aS)-tetrahydro-1H-furo[3,4-c]pyrrol-5(3H)-yl)methyl)quinolin-4(1H)-one], for which the IC50 in experiment [1] came to 24 nM; in experiment [2], 1300 nM.
For `CNC(=O)c1cc(=O)c2ccc(-c3nc(N[C@@H]4CCOC[C@H]4O)ncc3Cl)cc2n1C(C)C` [Example 14, 7-(5-chloro-2-(((3S,4R)-3-hydroxytetrahydro-2H-pyran-4-yl)amino)pyrimidin-4-yl)-1-isopropyl-N-methyl-4-oxo-1,4-dihydroquinoline-2-carboxamide], the results for the IC50 in experiment [1] and in experiment [2] were 42 nM and 714 nM, respectively.
On the same counts, the results for `CC(C)n1c(CN2CC[C@@H](F)C2)cc(=O)c2ccc(-c3nc(N[C@@H]4CCOC[C@H]4O)ncc3F)cc21` [Example 49, 7-(5-fluoro-2-(((3S,4R)-3-hydroxytetrahydro-2H-pyran-4-yl)amino)pyrimidin-4-yl)-2-(((R)-3-fluoropyrrolidin-1-yl)methyl)-1-isopropylquinolin-4(1H)-one] are 8.3 nM and 299 nM.
In the case of `CC(C)n1c(CN2CCOCC2)cc(=O)c2ccc(-c3nc(N[C@@H]4CCOC[C@H]4O)ncc3Cl)cc21` [Example 26, 7-(5-chloro-2-(((3S,4R)-3-hydroxytetrahydro-2H-pyran-4-yl)amino)pyrimidin-4-yl)-1-isopropyl-2-(morpholinomethyl)quinolin-4(1H)-one], the results for the IC50 in experiment [1] and in experiment [2] were 16 nM and 336 nM, respectively.
Taken in the same sequence, the figures for `CC(C)n1c(CN2CCC[C@H](O)C2)cc(=O)c2ccc(-c3nc(N[C@@H]4CCOC[C@H]4O)ncc3F)cc21` [Example 56, 7-(5-fluoro-2-(((3S,4R)-3-hydroxytetrahydro-2H-pyran-4-yl)amino)pyrimidin-4-yl)-2-(((S)-3-hydroxypiperidin-1-yl)methyl)-1-isopropylquinolin-4(1H)-one] were 7 nM and 238 nM.
On the same counts, the results for `CC(C)n1c(CN2CCCC(F)(F)C2)cc(=O)c2ccc(-c3nc(N[C@@H]4CCOC[C@H]4O)ncc3F)cc21` [Example 70, 2-((3,3-difluoropiperidin-1-yl)methyl)-7-(5-fluoro-2-(((3S,4R)-3-hydroxytetrahydro-2H-pyran-4-yl)amino)pyrimidin-4-yl)-1-isopropylquinolin-4(1H)-one] are 11 nM and 396 nM.
Taken in the same sequence, the figures for `Cc1c(Cl)c(=O)c2ccc(-c3nc(N[C@@H]4CCOC[C@H]4O)ncc3F)cc2n1C(C)C` [Example 15, 3-chloro-7-(5-fluoro-2-(((3S,4R)-3-hydroxytetrahydro-2H-pyran-4-yl)amino)pyrimidin-4-yl)-1-isopropyl-2-methylquinolin-4(1H)-one] were 15 nM and 255 nM.
As to `Cc1c(C2CC2)c(=O)c2ccc(-c3nc(N[C@@H]4CCOC[C@H]4O)ncc3F)cc2n1C(C)C` [Example 40, 3-cyclopropyl-7-(5-fluoro-2-(((3S,4R)-3-hydroxytetrahydro-2H-pyran-4-yl)amino)pyrimidin-4-yl)-1-isopropyl-2-methylquinolin-4(1H)-one], the results for the IC50 in experiment [1] and in experiment [2] were 8.8 nM and 150 nM, respectively.
`CC(C)n1c(CN2C[C@H](O)[C@@H](F)C2)cc(=O)c2ccc(-c3nc(N[C@@H]4CCOC[C@H]4O)ncc3F)cc21` [Example 32, 7-(5-fluoro-2-(((3S,4R)-3-hydroxytetrahydro-2H-pyran-4-yl)amino)pyrimidin-4-yl)-2-(((3S,4S)-3-fluoro-4-hydroxypyrrolidin-1-yl)methyl)-1-isopropylquinolin-4(1H)-one]: the half-inhibitory concentration (IC50) in experiment [1] was 10 nM; in experiment [2], 200 nM.
Taken in the same sequence, the figures for `Cc1c(CN(C)C)n(C(C)C)c2cc(-c3nc(N[C@@H]4CCOC[C@H]4O)ncc3F)ccc2c1=O` [Example 108, 2-((dimethylamino)methyl)-7-(5-fluoro-2-(((3S,4R)-3-hydroxytetrahydro-2H-pyran-4-yl)amino)pyrimidin-4-yl)-1-isopropyl-3-methylquinolin-4(1H)-one] were 14 nM and 392 nM.
With `Cc1c(CN2CCC(O)CC2)n(C(C)C)c2cc(-c3nc(N[C@@H]4CCOC[C@H]4O)ncc3F)ccc2c1=O` [Example 115, 7-(5-fluoro-2-(((3S,4R)-3-hydroxytetrahydro-2H-pyran-4-yl)amino)pyrimidin-4-yl)-2-((4-hydroxypiperidin-1-yl)methyl)-1-isopropyl-3-methylquinolin-4(1H)-one], the figures for the 50% inhibitory concentration (IC50) in experiment [1] and in experiment [2] were 6.6 nM and 271 nM, respectively.
With `CC(C)n1c(CN[C@H]2C[C@H](F)C2)cc(=O)c2ccc(-c3nc(N[C@@H]4CCOC[C@H]4O)ncc3F)cc21` [Example 63, 7-(5-fluoro-2-(((3S,4R)-3-hydroxytetrahydro-2H-pyran-4-yl)amino)pyrimidin-4-yl)-2-((((1r,3R)-3-fluorocyclobutyl)amino)methyl)-1-isopropylquinolin-4(1H)-one], the values for the IC50 in experiment [1] and in experiment [2] were 22 nM and 484 nM, respectively.
Taken in the same sequence, the figures for `Cc1c(CN2[C@H](C)COC[C@@H]2C)n(C(C)C)c2cc(-c3nc(N[C@@H]4CCOC[C@H]4O)ncc3F)ccc2c1=O` [Example 72, 2-(((3R,5S)-3,5-dimethylmorpholino)methyl)-7-(5-fluoro-2-(((3S,4R)-3-hydroxytetrahydro-2H-pyran-4-yl)amino)pyrimidin-4-yl)-1-isopropyl-3-methylquinolin-4(1H)-one] were 0.8 nM and 21.6 nM.
Taken in the same sequence, the figures for `CC(C)n1c(CN[C@@H]2CCOC2)cc(=O)c2ccc(-c3nc(N[C@@H]4CCOC[C@H]4O)ncc3F)cc21` [Example 65, 7-(5-fluoro-2-(((3S,4R)-3-hydroxytetrahydro-2H-pyran-4-yl)amino)pyrimidin-4-yl)-1-isopropyl-2-((((R)-tetrahydrofuran-3-yl)amino)methyl)quinolin-4(1H)-one] were 31 nM and 744 nM.
On the same counts, the results for `Cc1c(CN2[C@H](C)COC[C@H]2C)n(C(C)C)c2cc(-c3nc(N[C@@H]4CCOC[C@H]4O)ncc3F)ccc2c1=O` [Example 71, 2-(((3R,5R)-3,5-dimethylmorpholino)methyl)-7-(5-fluoro-2-(((3S,4R)-3-hydroxytetrahydro-2H-pyran-4-yl)amino)pyrimidin-4-yl)-1-isopropyl-3-methylquinolin-4(1H)-one] are 2.7 nM and 140 nM.
For `CC(C)n1c(CNc2ccc(F)cc2)cc(=O)c2ccc(-c3nc(N[C@@H]4CCOC[C@H]4O)ncc3F)cc21` [Example 96, 7-(5-fluoro-2-(((3S,4R)-3-hydroxytetrahydro-2H-pyran-4-yl)amino)pyrimidin-4-yl)-2-(((4-fluorophenyl)amino)methyl)-1-isopropylquinolin-4(1H)-one], the IC50 amounted to 21 nM in experiment [1] and 273 nM in experiment [2].
Turning to `CC(C)n1c(CN2CC[C@@H](F)[C@H](O)C2)cc(=O)c2ccc(-c3nc(N[C@@H]4CCOC[C@H]4O)ncc3F)cc21` [Example 84, 7-(5-fluoro-2-(((3S,4R)-3-hydroxytetrahydro-2H-pyran-4-yl)amino)pyrimidin-4-yl)-2-(((3R,4R)-4-fluoro-3-hydroxypiperidin-1-yl)methyl)-1-isopropylquinolin-4(1H)-one], the IC50 in experiment [1] was 6.8 nM; in experiment [2] it was 170 nM.
Taken in the same sequence, the figures for `CC(C)n1c(CN2CCC(F)(F)C2)cc(=O)c2ccc(-c3nc(N[C@@H]4CCOC[C@H]4O)ncc3F)cc21` [Example 80, 2-((3,3-difluoropyrrolidin-1-yl)methyl)-7-(5-fluoro-2-(((3S,4R)-3-hydroxytetrahydro-2H-pyran-4-yl)amino)pyrimidin-4-yl)-1-isopropylquinolin-4(1H)-one] were 22 nM and 616 nM.
Taken in the same sequence, the figures for `CC(C)n1c(CNc2cccc(Cl)c2)cc(=O)c2ccc(-c3nc(N[C@@H]4CCOC[C@H]4O)ncc3F)cc21` [Example 95, 2-(((3-chlorophenyl)amino)methyl)-7-(5-fluoro-2-(((3S,4R)-3-hydroxytetrahydro-2H-pyran-4-yl)amino)pyrimidin-4-yl)-1-isopropylquinolin-4(1H)-one] were 13 nM and 208 nM.

One may read the IC50 as the concentration needed to halve the response being measured.
